Laboratory results published in patent US20260306460A1, “COMPOSITION FOR REMOVING AND INHIBITING SENESCENT CELLS, AND USES THEREOF” (LIFECEUTIX CO., LTD., priority 2023, published 2026).

Experiments:
Format in all cases: in vivo, mouse
[1] = tested on: naturally aged C57BL6J mice; experiment: Lipofuscin staining in muscle of naturally aged mice, Example 21-4; settings: untreated aged = 100, LX-5701 360 mg/kg po, LX-2101 20 mg/kg ip, LX-2102 10 mg/kg ip, daily 21 days
Description: 22-month-old female C57BL6J mice (KRIBB Laboratory Animal Resource Center) were acclimated to the experimental environment for one week, after which the aged mice were randomly assigned to experimental and control groups. Eight-week-old, non-aged mice served as controls. LX-403 was mixed in a 10% ethanol solution of PEG400 and administered orally at a concentration of 25 mg/kg daily for 21 days, or administered to the skin, joints, or eyes at a concentration of 1 μM. LX-1801 was mixed in distilled water with 4% DMSO, 30% PEG300, and 5% Tween80 and administered to the skin, joints, or eyes at a concentration of 0.4 μM daily for 21 days. LX-2001 was mixed in PBS and administered to the skin, joints, or eyes at a concentration of […] daily for 21 days. LX-2002 was mixed in distilled water with 4% DMSO, 30% PEG300, and 5% Tween80 and administered to the skin, joints, or eyes at a concentration of 2 μM daily for 21 days. […] LX-2005 was mixed in distilled water with 4% DMSO, 30% PEG300, and 5% Tween80 and administered to the skin, joints, or eyes at a concentration of 90 μM daily for 21 days. LX-2007 was mixed in distilled water with 4% DMSO, 30% PEG300, and 5% Tween80 and administered to the skin, joints, or eyes at a concentration of 90 μM daily for 21 days. […] LX-3002 was mixed in distilled water with 4% DMSO, 30% PEG300, and 5% Tween80 and administered orally at a concentration of 10 mg/kg daily for 21 days. […] LX-5411 was mixed in 5% PBS and administered orally at a concentration of 10 mg/kg daily for 21 days or administered to the skin, joints, or eyes at a concentration of 3 μM. LX-5701 was mixed in PBS and administered orally at a concentration of 360 mg/kg daily for 21 days. LX-6807 was mixed in saline and administered intraperitoneally at a concentration of 1 mg/kg daily for 21 days. LX-2101 or LX-2102 was mixed in PBS solution with 5% DMSO and administered intraperitoneally at a concentration of 20 mg/kg or 10 mg/kg, respectively, daily for 21 days. […]
Mice were sacrificed and evaluated using the same method as in Example 7-4 of WO2023-085787 A1. […]

[2] = tested on: naturally aged C57BL6J mice; experiment: Serum IL6 and MCP1 (ELISA) in naturally aged mice, Example 21-5; settings: untreated aged = 100, LX-5701 360 mg/kg po, LX-2101 20 mg/kg ip, LX-2102 10 mg/kg ip, daily 21 days
Description: (§1) 22-month-old female C57BL6J mice (KRIBB Laboratory Animal Resource Center) were acclimated to the experimental environment for one week, after which the aged mice were randomly assigned to experimental and control groups. Eight-week-old, non-aged mice served as controls. LX-403 was mixed in a 10% ethanol solution of PEG400 and administered orally at a concentration of 25 mg/kg daily for 21 days, or administered to the skin, joints, or eyes at a concentration of 1 μM. LX-1801 was mixed in distilled water with 4% DMSO, 30% PEG300, and 5% Tween80 and administered to the skin, joints, or eyes at a concentration of 0.4 μM daily for 21 days. LX-2001 was mixed in PBS and administered to the skin, joints, or eyes at a concentration of […] daily for 21 days. LX-2002 was mixed in distilled water with 4% DMSO, 30% PEG300, and 5% Tween80 and administered to the skin, joints, or eyes at a concentration of 2 μM daily for 21 days. […] LX-2005 was mixed in distilled water with 4% DMSO, 30% PEG300, and 5% Tween80 and administered to the skin, joints, or eyes at a concentration of 90 μM daily for 21 days. LX-2007 was mixed in distilled water with 4% DMSO, 30% PEG300, and 5% Tween80 and administered to the skin, joints, or eyes at a concentration of 90 μM daily for 21 days. […] LX-3002 was mixed in distilled water with 4% DMSO, 30% PEG300, and 5% Tween80 and administered orally at a concentration of 10 mg/kg daily for 21 days. […] LX-5411 was mixed in 5% PBS and administered orally at a concentration of 10 mg/kg daily for 21 days or administered to the skin, joints, or eyes at a concentration of 3 μM. LX-5701 was mixed in PBS and administered orally at a concentration of 360 mg/kg daily for 21 days. LX-6807 was mixed in saline and administered intraperitoneally at a concentration of 1 mg/kg daily for 21 days. LX-2101 or LX-2102 was mixed in PBS solution with 5% DMSO and administered intraperitoneally at a concentration of 20 mg/kg or 10 mg/kg, respectively, daily for 21 days. The control group received only the solution in the same volume. After the end of drug administration, the methods described in each example below were performed.
The amounts of IL6 and MCP1, senescence-associated secretory factors (SASPs), in serum collected from mice were measured using an enzyme-linked immunosorbent assay (ELISA Kit, R&D Systems).

[3] = tested on: naturally aged C57BL6J mice; experiment: SASP mRNA (MMP3, IL1B, MMP12, IL6, MMP13) in naturally aged mice, Example 21-6, Table 22; settings: untreated aged = 100%
Description: as §1
Using cDNA synthesized in the same manner as Example 7-2 of WO2023-085787 A1, qRT-PCR was performed and analyzed for the senescence-associated secretory factors (SASPs) MMP3, IL1B, MMP12, IL6, and MMP13. […] The mRNA levels of each factor after aging induction were calculated as 100% and compared with the mRNA levels of each factor after test compound treatment.

[4] = tested on: doxorubicin-induced aged C57BL6J mice; experiment: Fatigue, weakness and weight loss in doxorubicin-aged mice, Example 22-7, Table 36; settings: for Grip Sterenght Test Strength / Open Field Test Time in Center / Wire Hanging Test Time: amount after aging calculated as 100%; for Mean Body Weight: untreated 20.8 (±1.7)
Description: Eight-week-old male C57BL6J mice (KRIBB Laboratory Animal Resource Center) were acclimated to the experimental environment for one week. […] The aging-induced mice were randomly assigned to experimental and control groups. […] The control group received only the solution in the same volume. After the end of drug administration, the methods described in each example below were performed.
The amount of each evaluation after aging was calculated as 100% and compared with the amount of each evaluation after test compound treatment.

[5] = tested on: doxorubicin-induced aged C57BL6J mice; experiment: Kidney damage (urea, creatinine, Agtr1a mRNA) in doxorubicin-aged mice, Example 22-9, Table 38; settings: amount after aging calculated as 100%; for Creatinine / Urea: serum
Description: Eight-week-old male C57BL6J mice (KRIBB Laboratory Animal Resource Center) were acclimated to the experimental environment for one week. Afterwards, the anticancer agent doxorubicin was administered intraperitoneally at a concentration of 10 mg/kg, inducing aging for more than 10 days. The aging-induced mice were randomly assigned to experimental and control groups. LX-403 was mixed with a 10% ethanol solution of PEG400 and administered orally at a concentration of 25 mg/kg or intradermally at a concentration of 1 μM for 21 days. LX-1801 was mixed in distilled water with 4% DMSO, 30% PEG300, and 5% Tween80 and administered intradermally at a concentration of 0.4 μM daily for 21 days. LX-2001 was mixed in PBS and administered intradermally at a concentration of 2 μM daily for 21 days. LX-2002 was mixed in distilled water with 4% DMSO, 30% PEG300, and 5% Tween80 and administered intradermally at a concentration of 2 μM daily for 21 days. […] LX-2005 was mixed in distilled water with 4% DMSO, 30% PEG300, and 5% Tween80 and administered intradermally at a concentration of 90 μM daily for 21 days. LX-2007 was mixed in distilled water with 4% DMSO, 30% PEG300, and 5% Tween80 and administered intradermally at a concentration of 90 μM daily for 21 days. […] LX-3002 was mixed in distilled water with 4% DMSO, 30% PEG300, and 5% Tween80 and administered orally at a concentration of 10 mg/kg daily for 21 days. […] LX-5411 was mixed in 5% phosphate-buffered saline (PBS) and administered orally at a concentration of 10 mg/kg daily for 21 days or intradermally at a concentration of 3 μM. LX-5701 was mixed in PBS and administered orally at a concentration of 360 mg/kg daily for 21 days. LX-6807 was mixed in saline and administered intraperitoneally at a concentration of 1 mg/kg daily for 21 days. The control group received only the solution in the same volume. After the end of drug administration, the methods described in each example below were performed.
The amounts of urea and creatinine, markers of kidney damage, were measured spectrophotometrically in serum collected from mice using the same method as in Examples 7-8 of WO2023-085787 A1. […] The amount of each factor after aging was calculated as 100% and compared with the amount of each factor after treatment with the test compound.

Row | Molecule | Lipofuscin (staining area) [1] | IL6 [2] | MCP1 [2] | MMP13 mRNA (%), Eye [3] | IL1β mRNA (%), Kidney [3] | MMP13 mRNA (%), Knee joint [3] | MMP3 mRNA (%), Liver [3] | MMP12 mRNA (%), Lung [3] | IL6 mRNA (%), Muscle [3] | MMP3 mRNA (%), Skin [3] | MMP12 mRNA (%), Skin [3] | MMP13 mRNA (%), Skin [3] | Grip Sterenght Test Strength [4] | Open Field Test Time in Center [4] | Wire Hanging Test Time [4] | Mean Body Weight [4] | Agtr1a mRNA [5] | Creatinine [5] | Urea [5]
1 | CC1(C)CC[C@]2(NC(=O)C(C)(F)F)CC[C@]3(C)[C@H](C(=O)C=C4[C@@]5(C)C=C(C#N)C(=O)C(C)(C)[C@@H]5CC[C@]43C)[C@@H]2C1 [LX-2101, Omaveloxolone] | 64 (±11.6) % | 49 (±21.8) % | 58 (±9.5) % | 35% | 73% | 46% | 45% | 58% | 69% | 81% | 82% | 38% |  |  |  |  |  |  | 
2 | COC(=O)[C@]12CCC(C)(C)C[C@H]1[C@H]1C(=O)C=C3[C@@]4(C)C=C(C#N)C(=O)C(C)(C)[C@@H]4CC[C@@]3(C)[C@]1(C)CC2 [LX-2102, Bardoxolone methyl] | 71 (±8.1) % | 58 (±16.1) % | 61 (±14.0) % | 71% | 68% | 77% | 56% | 66% | 81% | 83% | 78% | 68% |  |  |  |  |  |  | 
3 | CCCC\C=C/C=C/C=C\CCCCCCCC(=O)O [LX-2707, Punicic acid] |  |  |  |  |  |  |  |  |  |  |  |  | 128 (±5.7) % | 232 (±33.6) % | 192 (±12.7) % | 22.4 (±2.1) g | 62 (±3.8) % | 75 (±5.3) % | 80 (±3.3) %
4 | O=C1C2CCN(CC2)C1CNC(=O)C(F)(F)F (stereo not drawn) [LX-5701] | 69 (±10.8) % | 68 (±14.1) % | 62 (±9.8) % | 71% | 58% | 61% | 59% | 70% | 38% | 79% | 71% | 62% | 117 (±6.9) % | 192 (±24.3) % | 139 (±8.2) % | 23.0 (±2.8) g | 60 (±10.4) % | 80 (±5.0) % | 75 (±5.9) %
5 | Cc1cccc([C@H](C)c2cnc[nH]2)c1C [LX-6807, Dexmedetomidine] |  |  |  |  |  |  |  |  |  |  |  |  | 137 (±6.3) % | 249 (±34.1) % | 209 (±14.5) % | 23.2 (±2.7) g | 43 (±3.0) % | 73 (±2.7) % | 72 (±5.8) %
6 | Tocofersolan [LX-3001] |  |  |  |  |  |  |  |  |  |  |  |  | 120 (±9.3) % |  | 127 (±13.3) % | 21.2 (±1.3) g | 70 (±5.8) % | 85 (±4.4) % | 76 (±2.8) %
